From patent publication US20110064833A1, “SYNERGISTIC HERBAL COMPOSITION AND PROCESS OF PREPARATION THEREOF” (priority 2007, published 2011)

System: streptozotocin diabetic rats
Test: In-vivo efficacy screening in streptozotocin diabetic Sprague Dawley rats, 35 days oral gavage
Description: The number of animals per dose group is five and is kept for examination and acclimatization for a week period at the start of the study. The total number of dose groups is six along with vehicle control. The different groups are G1-Vehicle control, G2-Diabetic control, G-3 Diabetic animals treated with Pioglitazone (Standard anti-diabetic drug). […] Blood is collection under CO2 anesthesia by retro orbital (ROP) plexus method and FBG analysis. Rats are fed with 5% glucose water for two days before STZ injection and are fasted for 12 hours before administering streptozotocin. The rats are injected intra-peritoneal with 45 mg/kg-body weight of streptozotocin in a citrate buffer ph: 4.5 and allowed for week recovery. Rats are fasted for 12 hours after 7th day of STZ injection and blood collected in heparin as the anti-coagulant, under CO2 anesthesia and analyzed for FBG. Rats that have the range of FBG beyond 250 mg/dl and above are considered for the study.
Selection, randomization and grouping of the animals into different treatment groups with the FBG range of 250 mg/dl is undertaken as above. […] The dosage volume administered to individual rat was adjusted according to its most recently recorded body weights. […] All signs of ill health, together with any behavioral changes or reaction to treatment are recorded for individual animals. […]

| SMILES | increase in fasting blood glucose from baseline at the end of 35 days (glebenclamide, dose not stated) | increase in fasting blood glucose from baseline at the end of 35 days (pioglitazone 20 mg/kg-body weight) |
| --- | --- | --- |
| COc1ccc(Cl)cc1C(=O)NCCc1ccc(S(=O)(=O)NC(=O)NC2CCCCC2)cc1 [glebenclamide] | about 110% | – |
| CCc1ccc(CCOc2ccc(CC3SC(=O)NC3=O)cc2)nc1 (centres unmarked) [pioglitazone] | – | about 98% |
